Key:
[1] = molecular target: T1, dopamine D2 receptors (Homo sapiens (Human), UniProt P14416); experiment: G protein Gαi1-γ9 dissociation BRET, dopamine D2 receptor functional activity; type: cell-based; details: for Emax: read-out: Gai1 BRET Emax % ± SEM
Experimental: To examine downstream G protein signaling mediated by dopamine D2 receptors, 6 cm dish was used for transfection with 1μg of dopamine D2 receptors, 1μg of Gαi1 fused to seaweed luciferase (Gαi1-Rluc), 1 μg of Gβ3, 1 μg of Gγ9 fused to green fluorescent protein (Gγ9-GFP) and 16 μL of transfection reagent PEI. […] On the third day, the drugs were added for test.
(§1) To examine downstream G-protein signaling pathway mediated by dopamine D2 receptors, on the first day, 6 cm dish was used for transfection with 1μg of dopamine D2 receptors, 1μg of Gαi1 containing C-terminal seaweed luciferase (GGαi1-Rluc), 1 μg of […], 1 μg of Gγ9 containing C-terminal green fluorescent protein (Gγ9-GFP) and 16 μL of PEI. At the same time, in order to examine the downstream f3-arrestin2 signaling pathway mediated by dopamine D2 receptors, on the first day, 6 cm dish was used for transfection with 500 μg of dopamine D2 receptors containing C-terminal seaweed luciferase (D2-Rluc), 500 μg of G protein-coupled receptor kinase 2 (GRK2), 2500 μg of […] containing N-terminal green fluorescent protein (GFP2-ARRB2) and 14 μL of PEI. The next day, the overgrown cells were digested and plated a 96-well plate at the amount of cells contained in a 6 cm culture dish with overgrown cells, and 100 μL of culture medium was added to each well. On the third day, the drugs were added for test. The 96-well plate was taken out from the cell culture room to remove the culture medium, 40 μL of the substrate coelenterazine 400a (final concentration of 5 μM) was added to each well, and then 20 μL of different drugs were added in turn from left to right to ensure that the final concentration of the drugs decreased gradually from bottom to top, and each treatment was repeated twice. Finally, the prepared samples were loaded on machine for test. The machine reading value reflected the intracellular β-arrestin2 on the membrane and the dissociation of G protein trimer. The former indicated the degree of activation of the β-arrestin2 signaling pathway downstream of the dopamine D2 receptors, and the latter indicated the degree of activation of the G protein signaling pathway downstream of the dopamine D2 receptors.

[2] = molecular target: T1, dopamine D2 receptors; experiment: Radioligand competition binding, affinity for dopamine D2 receptors ([3H]-Methylspiperone); details: [3H]-Methylspiperone (0.3-0.5 nM), HEK-293T membranes; for Ki: I-1 to 19 n=3, I-20 to 27 single determination; for Affinity pKi ± SEM: n=3
Experimental: A 10 cm diameter dish was used for transfection with 10 ng of the dopamine D2 receptors and 40 μL of PEI. After 48 hours, the 10 cm dish was taken out from the cell culture room and the cultured cells had expressed the dopamine D2 receptors. A vacuum pump was used to suck off the culture medium, 3 mL of lysis buffer (50 mM Tris hydrochloric acid buffer, pH 7.4) was added to each well, and the cells were placed in a 4° C. freezer for 10 minutes. After the cells were detached, the cells were transferred to a 15 mL centrifuge tube and centrifuged at 1500 rpm for 5 minutes at 4° C., and the supernatant was discarded. The cell pellet was transferred to a tissue homogenizer, and 3 mL of lysis buffer was added and fully ground until the cells were broken. Then, cell suspension was equally divided into several EP tubes, centrifuged at 4° C. and 12000 rpm for 5 min, and the supernatant was discarded. The precipitate was the cell membrane component containing the dopamine D2 receptors and stored at −80° C.
First, a standard binding buffer (50 mM HEPES, 50 mM NaCl, 5 mM MgCl2, 0.5 mM EDTA, pH 7.4) was added to the cell membrane component containing the dopamine D2 receptors, and the cell membrane was disrupted and resuspended with an electric tissue homogenizer. 30 μL of membrane protein suspension was added to each well of a 96-well plate. Then, 30 μL of different drugs were added to the 96-well plate from left to right to ensure that the final drug concentrations were 10^−5 M, 10^−6 M, 10^−7 M, 10^−8 M, 10^−9 M and 0 M, with two replicates per treatment. Next, 30 μL [^3H]-N-Methylspiperone was added to each well of the 96-well plate, and the plate was incubated for 2 hours at room temperature in the dark. The unbound isotopes were removed by Whatman GF/C filter membrane and vacuum pump, and the isotopes bound to the receptors were detected by MicroBeta isotope liquid scintillation counter.
The affinity of the compounds of the present invention for the dopamine D2 receptors was determined by the method of radioligand competition experiment. In the first step, a cell membrane component containing specific dopamine D2 receptors was prepared. A10 cm dish was used for transfection with 10 ng of the dopamine D2 receptors and 40 μL of PEI. After 48 hours, the 10 cm dish was taken out from the cell culture room and the cultured cells had expressed the dopamine D2 receptors. A vacuum pump was used to suck off the culture medium, 3 mL of lysis buffer was added to each well, and the cells were placed in a 4° C. freezer for 10 minutes. After the cells were detached, the cells were transferred to a 15 mL centrifuge tube and centrifuged at 1500 rpm for 5 minutes at 4° C., and the supernatant was discarded. The cell pellet was transferred to a tissue homogenizer, and 3 mL of lysis buffer was added and fully ground until the cells were broken. Then, cell suspension was equally divided into several EP tubes, centrifuged at 4° C. and 12000 rpm for 5 min, and the supernatant was discarded. The precipitate was the cell membrane component containing the dopamine D2 receptors. […] First, a standard binding buffer was added to the cell membrane component containing the dopamine D2 receptors, and the cell membrane was disrupted and resuspended with an electric tissue homogenizer. 30 μL of membrane protein suspension was added to each well of a 96-well plate. Then, 30 μL of different drugs were added to the 96-well plate from left to right to ensure that the final drug concentrations were 10^−5 M, 10^−6 M, 10^−7 M, 10^−8 M, 10^−9 M and 0 M, with two replicates per treatment. Next, 30 μL [^3H]-Methylspiperone was added to each well of the 96-well plate. The plate was incubated for 2 hours at room temperature in the dark. Detection. The machine reading value reflected the amount of [^3H]-Methylspiperone bound on the membrane, and after further data processing, the affinity Ki value of different compounds for dopamine D2 receptors was obtained.

[3] = molecular target: T1, dopamine D2 receptors; experiment: β-arrestin2 recruitment BRET, dopamine D2 receptor functional activity; type: cell-based; details: for Emax: read-out: β-arrestin2 BRET Emax % ± SEM
Experimental: To examine the downstream f3-arrestin2 signaling pathway mediated by dopamine D2 receptors, 6 cm dish was used for transfection with 500 […] of dopamine D2 receptors fused to seaweed luciferase (D2-Rluc), 500 μg of G protein-coupled receptor kinase 2 (GRK2), 2500 μg of β-arrestin2 fused to green fluorescent protein (GFP2-ARRB2) and 14 μL of transfection reagent PEI. The next day, the overgrown cells were digested and plated a 96-well plate at the amount of cells contained in a 6 cm culture dish with overgrown cells, and 100 μL of culture medium was added to each well. On the third day, the drugs were added for test.
as §1

[4] = HEK-293T, I-1 to 19 n=3, I-20 to 27 single determination, read-out: Gai1 BRET EC50
[5] = relative to the endogenous ligand dopamine
[6] = HEK-293T, I-1 to 19 n=3, I-20 to 27 single determination, read-out: β-arrestin2 BRET EC50
[7] = n=3, read-out: β-arrestin2 BRET pEC50 ± SEM (converted)
[8] = n=3, read-out: Gai1 BRET pEC50 ± SEM (converted)

T1 sequence (P14416 whole entry, the tested form may be a part): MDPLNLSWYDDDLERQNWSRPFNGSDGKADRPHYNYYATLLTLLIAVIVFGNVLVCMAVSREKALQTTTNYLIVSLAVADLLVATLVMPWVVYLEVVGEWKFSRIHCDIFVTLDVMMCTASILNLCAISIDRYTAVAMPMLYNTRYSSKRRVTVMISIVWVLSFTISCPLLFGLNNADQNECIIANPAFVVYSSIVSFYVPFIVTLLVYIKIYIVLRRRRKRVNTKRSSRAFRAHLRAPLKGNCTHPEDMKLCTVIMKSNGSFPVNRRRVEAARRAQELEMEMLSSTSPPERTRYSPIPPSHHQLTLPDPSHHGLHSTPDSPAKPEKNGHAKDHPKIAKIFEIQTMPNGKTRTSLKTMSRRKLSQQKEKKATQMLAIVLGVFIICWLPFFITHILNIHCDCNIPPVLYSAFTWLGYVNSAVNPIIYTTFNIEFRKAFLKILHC

| EC50 [1, 4] | Emax [1, 5] | Ki [2] | EC50 [3, 6] | Emax [3, 5] | Affinity pKi ± SEM [2] | EC50 [3, 7] | EC50 [1, 8] | Gai1 BRET Emax % ± SEM [1, 5] | β-arrestin2 BRET Emax % ± SEM [3, 5] | SMILES |
| --- | --- | --- | --- | --- | --- | --- | --- | --- | --- | --- |
| 38 nM | 41% | 176 nM | 91.6 nM | 32% | – | – | – | – | – | Cn1cc2c3c(cccc31)N1CCN(C/C=C/COc3ccc4c(c3)NC(=O)CC4)CC1C2 (stereo not shown) [Compound I-22, (E)-7-((4-(4-methyl-4,6,6a,7,9,10-hexahydro-8H-pyrazino[1,2-a]pyrrolo[4,3,2-de]quinolin-8-yl)-2-buten-1-yl)oxy)-3,4-dihydroquinolin-2(1H)-one] |
| 6.64 nM | 86% | 51.6 nM | 61.6 nM | 61% | (7.29 ± 0.10) | – | – | – | – | c1cc2c3c(c[nH]c3c1)CC1CN(CCCCOc3ccc4c(c3)OCC4)CCN21 (stereo not shown) [Compound I-6, 8-(4-((2,3-dihydrobenzofuran-6-yl)oxy)butyl)-6,6a,7,8,9,10-hexahydro-4H-pyrazino[1,2-a]pyrrolo[4,3,2-de]quinoline] |
| 38.9 nM | 94% | 0.49 nM | 110 nM | 98% | (9.31 ± 0.15) | – | – | – | – | O=c1ccc2ccc(OCCCN3CCN4c5cccc6[nH]cc(c56)CC4C3)cc2[nH]1 (stereo not shown) [Compound I-8, 7-(3-(4,6,6a,7,9,10-hexahydro-8H-pyrazino[1,2-a]pyrrolo[4,3,2-de]quinolin-8-yl)propoxy)quinolin-2(1H)-one] |
| 32.7 nM | 61% | 55.8 nM | 202 nM | 38% | (7.25 ± 0.12) | 200 nM | – | – | – | Cc1nc2n(c(=O)c1CCN1CCN3c4cccc5[nH]cc(c45)CC3C1)CCCC2 (stereo not shown) [Compound I-17, 3-(2-(4,6,6a,7,9,10-hexahydro-8H-pyrazino[1,2-a]pyrrolo[4,3,2-de]quinolin-8-yl)ethyl)-2-methyl-6,7,8,9-tetrahydro-4H-pyrido[1,2-a]pyrimidin-4-one] |
| 4 nM | 71% | 52.7 nM | – | 34% | (7.28 ± 0.15) | 28.8 nM | 4.17 nM | – | – | CN(C)C(=O)N[C@H]1CC[C@H](CCN2CCN3c4cccc5c4c(cn5C)CC3C2)CC1 (stereo partly drawn) [Compound I-19, 1,1-dimethyl-3-(4-(2-(4-methyl-4,6,6a,7,9,10-hexahydro-8H-pyrazino[1,2-a]pyrrolo[4,3,2-de]quinolin-8-yl)ethyl)trans-cyclohexyl)urea] |
| 3 nM | – | 1.75 nM | – | – | – | 18.2 nM | 2.75 nM | 91 ± 3% | 76 ± 2% | O=c1ccc2ccc(OCCCCN3CCN4c5cccc6[nH]cc(c56)CC4C3)cc2[nH]1 (single isomer, unassigned; (-)) [(−)-I-2] |
| 2.65 nM | 94% | 77.5 nM | 31.5 nM | 80% | (7.11 ± 0.12) | – | – | – | – | O=S(=O)(N[C@H]1CC[C@H](CCN2CCN3c4cccc5[nH]cc(c45)CC3C2)CC1)c1ccccc1 (stereo partly shown) [Compound I-15, N-(4-(2-(4,6,6a,7,9,10-hexahydro-8H-pyrazino[1,2-a]pyrrolo[4,3,2-de]quinolin-8-yl)ethyl)cyclohexyl)phenylsulfonamide] |
| 138 nM | 104% | 403 nM | 275 nM | 97% | (6.40 ± 0.12) | – | – | – | – | O=C1CCc2ccc(OCCCN3CCN4c5cccc6[nH]cc(c56)CC4C3)cc2N1 (stereo not shown) [Compound I-7, 7-(3-(4,6,6a,7,9,10-hexahydro-8H-pyrazino[1,2-a]pyrrolo[4,3,2-de]quinolin-8-yl)propoxy)-3,4-dihydroquinolin-2(1H)-one] |

| SMILES | EC50 [1, 4] | Emax [1, 5] | Ki [2] | EC50 [3, 6] | Emax [3, 5] | Affinity pKi ± SEM [2] | EC50 [3, 7] | EC50 [1, 8] | Gai1 BRET Emax % ± SEM [1, 5] | β-arrestin2 BRET Emax % ± SEM [3, 5] |
| --- | --- | --- | --- | --- | --- | --- | --- | --- | --- | --- |
| Cn1cc2c3c(cccc31)N1CCN(CCCCOc3ccc4ccc(=O)[nH]c4c3)CC1C2 (stereo not shown) [Compound I-18, 7-(4-(4-methyl-4,6,6a,7,9,10-hexahydro-8H-pyrazino[1,2-a]pyrrolo[4,3,2-de]quinolin-8-yl)butoxy)quinolin-2(1H)-one] | 11 nM | 77% | 61 nM | 110 nM | 50% | (7.22 ± 0.02) | – | – | – | – |
| Cc1nc2cc(OCCCCN3CCN4c5cccc6[nH]cc(c56)CC4C3)ccc2o1 (stereo not shown) [Compound I-4, 5-(4-(4,6,6a,7,9,10-hexahydro-8H-pyrazino[1,2-a]pyrrolo[4,3,2-de]quinolin-8-yl)butoxy)-2-methylbenzo[d]oxazole] | 6.68 nM | 80% | 30.3 nM | 71 nM | 66% | (7.52 ± 0.08) | – | – | – | – |
| Cc1noc2cc(OCCCCN3CCN4c5cccc6[nH]cc(c56)CC4C3)ccc12 (stereo not shown) [Compound I-5, 6-(4-(4,6,6a,7,9,10-hexahydro-8H-pyrazino[1,2-a]pyrrolo[4,3,2-de]quinolin-8-yl)butoxy)-3-methylbenzo[d] is oxazole] | 7.44 nM | 83% | 37.1 nM | 54 nM | 61% | (7.43 ± 0.09) | – | – | – | – |

Source: patent US20240124456A1, “AZA-ERGOLINE DERIVATIVE AND PREPARATION METHOD THEREFOR AND APPLICATION THEREOF” (SHANGHAITECH UNIVERSITY, priority 2021, published 2024)
